This is an account of results in patent publication US20210403498A1, “PHYTOCHEMICAL-FRUCTOOLIGOSACCHARIDE CONJUGATE, METHOD FOR PRODUCING SAME, AND USE THEREOF” (EVERGREEN BIO CO., LTD., priority 2018, published 2021).

In brackets after ≈: the same amount, converted by molar mass. Where two headings read alike, the source gives them in different places.

For data set [1], the system named is CCD 18Co (Normal Human colon fibroblast primary cell line). Put plainly: CCK-8 cell proliferation, normal colon cells. In kind it is cell-based. Conditions: 72 hr. The procedure: (§1) Specifically, the cell lines cultured in each well of a 96-well plate were dispensed at a density of 18,000 cells per well and cultured overnight, and then the cells were treated with drugs dissolved in various concentrations in the culture medium, and were incubated for 72 hr under a temperature of 37° C. and 5% CO2 condition in a humidified incubator. After completion of the culture, the medium was removed and replaced with 100 μl of PBS, and […] Cell Counting Kit-8 (CCK-8; Dojindo, Japan) solution was added thereto, and the cells were incubated for 3 hr for reaction. Thereafter, the degree of color development of the reaction solution was measured based on absorbance at 450 nm, and the number of cell proliferation was calculated according to the instructions of the producing company.
(§2) HT-29 cells were cultured in McCoy's 5A medium, LoVo cells were cultured in Ham's F-12K (Kaigh's) medium, CCD 18Co cells were cultured in DMEM. Before use, 10% Fetal bovine serum and 100 U/ml penicillin, streptomycin were added to all media.

The subject of data set [2] is HT-29 (Colorectal adenocarcinoma). Put plainly: CCK-8 cell proliferation, colorectal cancer cells. The data set is classed as cell-based, human. The following applies: for IC50: HT-29, 72 hr, CCK-8; for SI (Selectivity Index): IC50 for Normal cell (CCD 18Co)/IC50 for HT-29. How it is done: as §1, §2
Data set [3] has as its system Lovo (Colorectal adenocarcinoma capable of metastasis). Put plainly: CCK-8 cell proliferation, metastasis colorectal cancer cells. The data set is classed as cell-based, human. The following applies: for IC50: Lovo, 72 hr, CCK-8; for SI (Selectivity Index): IC50 for Normal cell (CCD 18Co)/IC50 for Lovo. How it is done: as §1, §2
Data set [4] can be described thus: In vivo pharmacokinetics in rats (FA in plasma, LC MS/MS). The following applies: male, Sprague Dawley; rat plasma, single oral dose 100 mg/kg FA. How it is done:
In order to evaluate the in vivo pharmacokinetics of FA-FOS II, the release profile of ferulic acid (FA) released from FA-FOS II in the colon of rats was investigated. Specifically, male Sprague Dawley rats weighing 180 to 250 g were randomly assigned to three groups as follows.
(ii) Ferulic acid (FA) administered group: a drug is prepared by dissolving ferulic acid (FA) in water and is administered orally thereto at a predetermined dose
(iii) FA-FOS II administered group: a drug is prepared by dissolving FA-FOS II in water and is administered orally thereto at a predetermined dose
Ferulic acid (FA) was orally administered to the rats at a dose of 100 mg/kg body weight, based on the amount of ferulic acid (FA), in the state dissolved in sterile water. Further, FA-FOS II was orally administered thereto at a dose of 3.89 g/kg body weight (equivalent to 100 mg/kg body weight in terms of the amount of ferulic acid) based on the amount of FA-FOS II, in the state dissolved in sterile water. After single dose administration via oral intake, rat blood was continuously sampled over 0, 0.5, 1, 3, 6, 8, 12, 24 hr. The sampled samples were subjected to LC MS/MS analysis in a multiple reaction monitoring (MRM) manner of a molecular weight 193.0/133.9 Da (intact mass/fragment mass of FA) to quantify the FA released from plasma.

In the case of `O=c1[nH]cc(F)c(=O)[nH]1` [5-Fluorouracil, 5-fluorouracil], the 50% inhibitory concentration (IC50) (commonly the concentration at which inhibition is half-maximal) in data set [1] (Homo sapiens, read-out: IC50) was determined as 0.014 µg/mL (≈ 0.108 µM); in data set [2] (Homo sapiens, read-out: IC50) it was 0.008 µg/mL (≈ 0.0615 µM); in data set [3] (Homo sapiens, read-out: IC50), 0.074 µg/mL (≈ 0.569 µM). For the same compound, the figures for the “SI (Selectivity Index)” value in data set [2] and in data set [3] were “(SI: 1.685)” and “(SI: 0.186)”, respectively.
With `O=C1[O][Pt]2([NH][C@@H]3CCCC[C@H]3[NH]2)[O]C1=O` [Oxaliplatin, oxaliplatin], the IC50 in data set [1] worked out at 0.100 µg/mL; in data set [2] it was 0.015 µg/mL; in data set [3], 0.068 µg/mL. The results for the “SI (Selectivity Index)” value in data set [2] and in data set [3] were “(SI: 6.631)” and “(SI: 1.473)”, respectively.
Consider `COc1cc(/C=C/C(=O)O)ccc1O` [FA, ferulic acid], for which the half-maximal inhibitory concentration (IC50) amounted to 0.583 µg/mL (≈ 3 µM) in data set [1] (Homo sapiens, read-out: IC50); 0.2 µg/mL (≈ 1.03 µM) in data set [2] (Homo sapiens, read-out: IC50); 0.244 µg/mL (≈ 1.26 µM) in data set [3] (Homo sapiens, read-out: IC50). The “SI (Selectivity Index)” value is given as “(SI: >2.918)” in data set [2] and “(SI: >2.389)” in data set [3]. For the same compound, in data set [4], the Tmax (as a rule, the time from dosing to the highest level) is approximately 5 min. Besides, the half-life (in general, the time in which the quantity being followed falls by half) in data set [4] was approximately 30 min.
